Reference: the NIST ThermoML archive (doi:10.1016/j.jct.2019.06.029)

Experiment: wn = mass fraction of the nth substance listed
Conditions: 100 kPa, Liquid; for viscosity: Falling or rolling sphere viscometry; for speed of sound: Frequency=3 MHz, Single path-length method; for mass density: Vibrating tube method

CCCC[n+]1ccc(C)cc1.[Br-] [1-butyl-4-methylpyridinium bromide] + O
Conditions | mass density, w1 = 0.01 [kg/m3] | mass density, w1 = 0.015 [kg/m3] | mass density, w1 = 0.02 [kg/m3] | speed of sound, w1 = 0.01 [m/s] | speed of sound, w1 = 0.015 [m/s] | speed of sound, w1 = 0.02 [m/s] | viscosity, w1 = 0.01 [mPa·s] | viscosity, w1 = 0.015 [mPa·s] | viscosity, w1 = 0.02 [mPa·s]
288.15 K | 1001.16 | 1002.26 | 1003.42 | 1472.7 | 1475.5 | 1478 | 1.165 | 1.176 | 1.195
293.15 K | 1000.23 | 1001.31 | 1002.47 | 1488.2 | 1490.8 | 1493.3 | 1.024 | 1.037 | 1.044
298.15 K | 999.051 | 1000.13 | 1001.26 | 1501.9 | 1504.1 | 1506.5 | 0.907 | 0.919 | 0.926
303.15 K | 997.647 | 998.68 | 999.765 | 1513.7 | 1515.7 | 1517 | 0.813 | 0.824 | 0.833
308.15 K | 996.019 | 996.958 | 998.102 | 1523.9 | 1525.8 | 1527.7 | 0.734 | 0.745 | 0.75

CCCCCC[n+]1ccc(C)cc1.[Br-] [1-hexyl-4-methylpyridinium bromide] + O
Conditions | mass density, w1 = 0.01 [kg/m3] | mass density, w1 = 0.015 [kg/m3] | mass density, w1 = 0.02 [kg/m3] | speed of sound, w1 = 0.01 [m/s] | speed of sound, w1 = 0.015 [m/s] | speed of sound, w1 = 0.02 [m/s] | viscosity, w1 = 0.01 [mPa·s] | viscosity, w1 = 0.015 [mPa·s] | viscosity, w1 = 0.02 [mPa·s]
288.15 K | 1000.9 | 1001.79 | 1002.56 | 1473.1 | 1476.5 | 1479.6 | 1.172 | 1.183 | 1.195
293.15 K | 999.956 | 1000.82 | 1001.8 | 1488.7 | 1491.6 | 1493.8 | 1.028 | 1.039 | 1.05
298.15 K | 998.796 | 999.636 | 1000.38 | 1502.2 | 1504.9 | 1507.5 | 0.913 | 0.924 | 0.934
303.15 K | 997.389 | 998.196 | 998.926 | 1514 | 1516.4 | 1518.9 | 0.817 | 0.824 | 0.834
308.15 K | 995.718 | 996.546 | 997.238 | 1524 | 1526.2 | 1528.6 | 0.738 | 0.746 | 0.753

CCCCCCCC[n+]1ccc(C)cc1.[Br-] [1-octyl-4-methylpyridinium bromide] + O
Conditions | mass density, w1 = 0.01 [kg/m3] | mass density, w1 = 0.015 [kg/m3] | mass density, w1 = 0.02 [kg/m3] | speed of sound, w1 = 0.01 [m/s] | speed of sound, w1 = 0.015 [m/s] | speed of sound, w1 = 0.02 [m/s] | viscosity, w1 = 0.01 [mPa·s] | viscosity, w1 = 0.015 [mPa·s] | viscosity, w1 = 0.02 [mPa·s]
288.15 K | 1000.54 | 1001.29 | 1002.09 | 1473.8 | 1477 | 1480.5 | 1.179 | 1.196 | 1.217
293.15 K | 999.566 | 1000.32 | 1001.1 | 1489.1 | 1492.2 | 1495.3 | 1.031 | 1.046 | 1.063
298.15 K | 998.379 | 999.123 | 999.874 | 1502.6 | 1505.3 | 1508.2 | 0.915 | 0.929 | 0.941
303.15 K | 996.945 | 997.706 | 998.407 | 1514.5 | 1516.7 | 1519.5 | 0.817 | 0.833 | 0.844
308.15 K | 995.3 | 996.048 | 996.742 | 1524.5 | 1526.4 | 1528.8 | 0.737 | 0.749 | 0.76

O [water] + CCCCCCCC[n+]1ccc(C)cc1.[Br-]
w2 = 0
Conditions | viscosity [mPa·s]
288.15 K | 1.136
293.15 K | 1.001
298.15 K | 0.89
303.15 K | 0.797
308.15 K | 0.718

O [water] + CCCCCC[n+]1ccc(C)cc1.[Br-]
w2 = 0
Conditions | viscosity [mPa·s]
288.15 K | 1.136
293.15 K | 1.001
298.15 K | 0.89
303.15 K | 0.797
308.15 K | 0.718

O [water] + CCCC[n+]1ccc(C)cc1.[Br-]
w2 = 0
Conditions | viscosity [mPa·s]
288.15 K | 1.136
293.15 K | 1.001
298.15 K | 0.89
303.15 K | 0.797
308.15 K | 0.718
